Results on 25 molecules are retold here after patent publication US20220227762A1, “AMIDE-SUBSTITUTED IMIDAZO COMPOUNDS AS SELECTIVE INHIBITORS OF INDOLEAMINE 2,3-DIOXYGENASES” (BEIGENE, LTD., priority 2019, published 2022).

The target of the experiment is T1, IDO1 (Homo sapiens, UniProt P14902).
T1 construct: endogenous in cells; host or cells: HeLa cells (American Type Culture Collection), induced with human recombinant IFN-γ
T1 sequence (P14902 whole entry): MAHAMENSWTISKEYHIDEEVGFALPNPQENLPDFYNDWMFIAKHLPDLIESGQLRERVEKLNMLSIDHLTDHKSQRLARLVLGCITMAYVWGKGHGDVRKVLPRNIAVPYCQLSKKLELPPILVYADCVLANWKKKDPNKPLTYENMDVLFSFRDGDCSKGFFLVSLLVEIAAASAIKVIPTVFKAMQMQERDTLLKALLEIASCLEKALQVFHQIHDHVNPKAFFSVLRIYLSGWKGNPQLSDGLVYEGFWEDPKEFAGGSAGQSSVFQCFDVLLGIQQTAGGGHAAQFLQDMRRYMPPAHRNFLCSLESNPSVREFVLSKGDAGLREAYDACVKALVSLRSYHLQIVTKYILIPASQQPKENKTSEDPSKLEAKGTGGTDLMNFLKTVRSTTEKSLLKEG
In words: HeLa Cell-Based IDO1 Kyn (Kynurenine) Production Assay. The note with it: HeLa cells, IDO1 induced by IFN-γ, 0.4 mM L-Trp, 48 hours incubation, Kyn absorbance at 480 nm; read-out: Cell-Based EC50 (nM) Hela IDO1. As for the experimental part: HeLa Cell-Based IDO1 Kyn (Kynurenine) Production Assay:
The inhibitory activity of IDO1 inhibitors is determined by using a colorimetric reaction to measure Kyn generated from L-Trp (L-Tryptophon) oxidation by cellular IDO1 in HeLa cells after induction of IDO1 expression by IFN-γ. Hela cells were obtained from the American Type Culture Collection and recovered in 10% FBS-containing phenol red-free DMEM medium. Cells were plated onto a 96-well plate (100 μl/well) at 8000 cells per well and kept at 37° C. in a humidified incubator supplied with 5% CO2. 4 hours later, Human recombinant IFN-γ (8901SC, CST) was added to cells (final concentration 100 ng/mL) to stimulate endogenous IDO1. Compounds at different concentrations diluted in dimethylsulfoxide (DMSO) were added simultaneously with IFN-γ and 0.4 mM L-Trp. Cells were kept at 37° C. in a humidified incubator supplied with 5% CO2. After 48 hours of incubation, 100 μl supernatant from each well was removed to a new plate. The protein in the medium was precipitated with the addition of 8 μl 6N trichloroacetic acid. The plate was incubated at 60° C. for 30 minutes and then centrifugation at 2500 rpm for 10 minutes to remove sediments. 80 μl supernatants were carefully removed to a new clean plate and added with an equal volume of 2% 4-(Dimethylamino)benzaldehyde (D2004, Sigma) dissolved in glacial acetic acid. The absorbance at 480 nm wavelength derived from Kyn was measured using a PHERAstar FS plate reader (BMG LABTECH). The IC50 for each compound was derived from fitting the dose-response data to the four-parameter logistic model by using XLfit software (IDBS).
For the molecule `CC(c1nc2cnc(C(=O)NC3CC3)cc2[nH]1)[C@H]1CC[C@@H](c2ccnc3ccc(F)cc32)CC1` (mixture of isomers) [Example 22, N-cyclopropyl-2-(1-((1s,4s)-4-(6-fluoroquinolin-4-yl)cyclohexyl)ethyl)-1H-imidazo[4,5-c]pyridine-6-carboxamide], the EC50 (in general, the concentration at which the effect is half-maximal) came to 3.12 nM.

For the molecule `CNC(=O)c1cc2[nH]c(C(C)[C@H]3CC[C@@H](c4ccnc5ccc(F)cc54)CC3)nc2cn1` (mixture of isomers) [Example 23, 2-(1-((1s,4s)-4-(6-fluoroquinolin-4-yl)cyclohexyl)ethyl)-N-methyl-1H-imidazo[4,5-c]pyridine-6-carboxamide], the EC50 was determined as 7.12 nM.

As to `CNC(=O)c1ccc2[nH]c(C(C)[C@H]3CC[C@@H](c4ccnc5ccc(F)cc54)CC3)nc2c1` (stereo partly shown) [Example 1, 2-(1-((1s,4s)-4-(6-fluoroquinolin-4-yl)cyclohexyl)ethyl)-N-methyl-1H-benzo[d]imidazole-5-carboxamide], the EC50 worked out at 64.1 nM.

On to `CC(C)NC(=O)c1ccc2nc([C@H](C)[C@H]3CC[C@@H](c4ccnc5ccc(F)cc54)CC3)[nH]c2c1` [Example 2, 2-((R)-1-((1s,4S)-4-(6-fluoroquinolin-4-yl)cyclohexyl)ethyl)-N-isopropyl-1H-benzo[d]imidazole-6-carboxamide], for which the concentration giving a half-maximal response (EC50) is 50.6 nM.

In the case of `C[C@@H](c1nc2ccc(C(=O)NC(C)(C)C)cc2[nH]1)[C@H]1CC[C@@H](c2ccnc3ccc(F)cc32)CC1` [Example 3, N-(tert-butyl)-2-((R)-1-((1s,4S)-4-(6-fluoroquinolin-4-yl)cyclohexyl)ethyl)-1H-benzo[d]imidazole-6-carboxamide], the EC50 stood at 74.5 nM.

As for `C[C@@H](c1nc2ccc(C(=O)NC3CCCC3)cc2[nH]1)[C@H]1CC[C@@H](c2ccnc3ccc(F)cc32)CC1` [Example 5, N-cyclopentyl-2-((R)-1-((1s,4S)-4-(6-fluoroquinolin-4-yl)cyclohexyl)ethyl)-1H-benzo[d]imidazole-6-carboxamide], the EC50 was 38.8 nM.

`C[C@@H](c1nc2ccc(C(=O)NC3CCCCC3)cc2[nH]1)[C@H]1CC[C@@H](c2ccnc3ccc(F)cc32)CC1` [Example 6, N-cyclohexyl-2-((R)-1-((1s,4S)-4-(6-fluoroquinolin-4-yl)cyclohexyl)ethyl)-1H-benzo[d]imidazole-6-carboxamide]: the EC50 was determined as 40.2 nM.

`CONC(=O)c1ccc2nc(C(C)[C@H]3CC[C@@H](c4ccnc5ccc(F)cc54)CC3)[nH]c2c1` (stereo partly shown) [Example 7, 2-(1-((1s,4s)-4-(6-fluoroquinolin-4-yl)cyclohexyl)ethyl)-N-methoxy-1H-benzo[d]imidazole-6-carboxamide]: the EC50 worked out at 470 nM.

Take `CC(c1nc2cc(C(=O)N(C)C)ccc2[nH]1)[C@H]1CC[C@@H](c2ccnc3ccc(F)cc32)CC1` (stereo partly shown) [Example 8, 2-(1-((1s,4s)-4-(6-fluoroquinolin-4-yl)cyclohexyl)ethyl)-N,N-dimethyl-1H-benzo[d]imidazole-5-carboxamide]: the 50% effective concentration (EC50) was 46.1 nM.

On to `C[C@@H](c1nc2ccc(C(=O)NC3CC3)cc2[nH]1)[C@H]1CC[C@@H](c2ccnc3ccc(F)cc32)CC1` [Example 9, N-cyclopropyl-2-((R)-1-((1s,4S)-4-(6-fluoroquinolin-4-yl)cyclohexyl)ethyl)-1H-benzo[d]imidazole-6-carboxamide], for which the EC50 was determined as 12.6 nM.

Regarding `Cc1cc(C(=O)NC2CCC2)cc2nc(C(C)[C@H]3CC[C@@H](c4ccnc5ccc(F)cc54)CC3)[nH]c12` (stereo partly shown) [Example 10, N-cyclobutyl-2-(1-((1s,4s)-4-(6-fluoroquinolin-4-yl)cyclohexyl)ethyl)-7-methyl-1H-benzo[d]imidazole-5-carboxamide], the EC50 was found to be 27.1 nM.

With `Cc1cc(C(=O)NC2CCC2)cc2nc([C@@H](C)[C@H]3CC[C@@H](c4ccnc5ccc(F)cc54)CC3)[nH]c12` [Example 10a, N-cyclobutyl-2-((R)-1-((1s,4S)-4-(6-fluoroquinolin-4-yl)cyclohexyl)ethyl)-7-methyl-1H-benzo[d]imidazole-5-carboxamide], the EC50 was found to be 788 nM.

`Cc1cc(C(=O)NC2CCC2)cc2nc([C@H](C)[C@H]3CC[C@@H](c4ccnc5ccc(F)cc54)CC3)[nH]c12` [Example 10b, N-cyclobutyl-2-((S)-1-((1s,4R)-4-(6-fluoroquinolin-4 yl)cyclohexyl)ethyl)-7-methyl-1H-benzo[d]imidazole-5-carboxamide]: the EC50 came to 17.1 nM.

As for `CC(c1nc2ccc(C(=O)NC3COC3)cc2[nH]1)C1CCC(c2ccnc3ccc(F)cc23)CC1` (stereo not shown) [Example 11, 2-(1-(4-(6-fluoroquinolin-4-yl)cyclohexyl)ethyl)-N-(oxetan-3-yl)-1H-benzo[d]imidazole-6-carboxamide], the EC50 is 84.1 nM.

With `COCCNC(=O)c1ccc2nc([C@H](C)[C@H]3CC[C@H](c4ccnc5ccc(F)cc54)CC3)[nH]c2c1` [Example 12, 2-((R)-1-((1r,4R)-4-(6-fluoroquinolin-4-yl)cyclohexyl)ethyl)-N-(2-methoxyethyl)-1H-benzo[d]imidazole-6-carboxamide], the EC50 came out at 959 nM.

Turning to `COCCNC(=O)c1ccc2nc([C@H](C)[C@H]3CC[C@@H](c4ccnc5ccc(F)cc54)CC3)[nH]c2c1` [Example 13, 2-((R)-1-((1s,4S)-4-(6-fluoroquinolin-4-yl)cyclohexyl)ethyl)-N-(2-methoxyethyl)-1H-benzo[d]imidazole-6-carboxamide], the EC50 stood at 62.9 nM.

Turning to `C[C@@H](c1nc2ccc(C(=O)Nc3ccccc3)cc2[nH]1)[C@H]1CC[C@@H](c2ccnc3ccc(F)cc32)CC1` [Example 14, 2-((R)-1-((1s,4S)-4-(6-fluoroquinolin-4-yl)cyclohexyl)ethyl)-N phenyl-1H-benzo[d]imidazole-6-carboxamide], the EC50 worked out at 14.4 nM.

Take `C[C@@H](c1nc2ccc(C(=O)Nc3ccccc3)cc2[nH]1)[C@H]1CC[C@H](c2ccnc3ccc(F)cc32)CC1` [Example 15, 2-((R)-1-((1r,4R)-4-(6-fluoroquinolin-4-yl)cyclohexyl)ethyl)-N-phenyl-1H-benzo[d]imidazole-6-carboxamide]: the EC50 was determined as 86.7 nM.

Consider `C[C@@H](c1nc2ccc(C(=O)NCC3(O)CCC3)cc2[nH]1)[C@H]1CC[C@@H](c2ccnc3ccc(F)cc32)CC1` [Example 16, 2-((R)-1-((1s,4S)-4-(6-fluoroquinolin-4-yl)cyclohexyl)ethyl)-N-((1-hydroxycyclobutyl)methyl)-1H-benzo[d]imidazole-6-carboxamide], for which the EC50 was over 1000 nM.

In the case of `C[C@@H](c1nc2ccc(C(=O)NCC3(O)CCC3)cc2[nH]1)[C@H]1CC[C@H](c2ccnc3ccc(F)cc32)CC1` [Example 17, 2-((R)-1-((1 r,4R)-4-(6-fluoroquinolin-4-yl)cyclohexyl)ethyl)-N-((1-hydroxycyclobutyl)methyl)-1H-benzo[d]imidazole-6-carboxamide], the 50% effective concentration (EC50) is over 1000 nM.

Take `COC1CCC(NC(=O)c2ccc3nc([C@H](C)[C@H]4CC[C@@H](c5ccnc6ccc(F)cc65)CC4)[nH]c3c2)CC1` (stereo partly drawn) [Example 18, 2-((R)-1-((1s,4S)-4-(6-fluoroquinolin-4-yl)cyclohexyl)ethyl)-N-(4-methoxycyclohexyl)-1H-benzo[d]imidazole-6-carboxamide]: the EC50 was found to be 122 nM.

Consider `COC1CCC(NC(=O)c2ccc3nc([C@H](C)[C@H]4CC[C@H](c5ccnc6ccc(F)cc65)CC4)[nH]c3c2)CC1` (stereo partly drawn) [Example 19, 2-((R)-1-((1r,4R)-4-(6-fluoroquinolin-4-yl)cyclohexyl)ethyl)-N-(4-methoxycyclohexyl)-1H-benzo[d]imidazole-6-carboxamide], for which the half-maximal effective concentration (EC50) worked out at 193 nM.

As to `CC(c1nc2cc(C(=O)NC3CC3)c(F)cc2[nH]1)[C@H]1CC[C@@H](c2ccnc3ccc(F)cc32)CC1` (stereo partly drawn) [Example 20, N-cyclopropyl-6-fluoro-2-(1-((1s,4S)-4-(6-fluoroquinolin-4-yl)cyclohexyl)ethyl)-1H-benzo[d]imidazole-5-carboxamide], the EC50 was determined as 6.9 nM.

Turning to `CC(c1nc2c(F)c(F)c(C(=O)NC3CC3)cc2[nH]1)[C@H]1CC[C@@H](c2ccnc3ccc(F)cc32)CC1` (stereo partly shown) [Example 21, N-cyclopropyl-4,5-difluoro-2-(1-((1s,4s)-4-(6-fluoroquinolin-4-yl)cyclohexyl)ethyl)-1H-benzo[d]imidazole-6-carboxamide], the EC50 worked out at 8.9 nM.

Take `C[C@@H](c1nc2cc(C(=O)NC3CC3)cnc2[nH]1)[C@H]1CC[C@@H](c2ccnc3ccc(F)cc32)CC1` [Example 24, N-cyclopropyl-2-((R)-1-((1s,4S)-4-(6-fluoroquinolin-4-yl)cyclohexyl)ethyl)-3H-imidazo[4,5-b]pyridine-6-carboxamide]: the EC50 was found to be 24.9 nM.
